Laboratory results reported in article PMC10800023 (Human Molecular Genetics, 2023).
Marks after values point to notes of the source that are not given here.

What was measured:
B10-mdx mice [1] = assay: Femur bone density by micro-CT (Study 2); type: in vivo, mouse; settings: for bone density measured by microCT: 4 months of treatment
Method: To evaluate the similarities and differences of potential side effects of the three corticosteroids, plasma/blood were evaluated ex vivo for their effects on endogenous corticosteroid after 14 days of dosing (Study 1) and glucose levels (Study 1) after 11 days of dosing. Bone formation was measured by evaluating osteocalcin levels in Study 1 after 14 days. Bone density was measured by micro-computed tomography (micro-CT) in Study 2 after 4 months.
Study 2: The goal of the second study was to evaluate corticosteroid side effects and efficacy in a longer study (4 months). After 28 days of dosing, mice were tested for depression-like behavior using a measure of corticosteroid-induced depression (FST followed by TST). Muscle function was tested via grip strength. Tests for depression and for grip-strength were done in a blinded manner. After 4 months, mice were euthanized, and tissues were collected. Bone from whole left leg was collected for micro-CT analysis. The number of animals per group was as follows: WT, n = 16; B10-mdx, n = 15; corticosteroid-treated groups, n = 8–10.
Micro-CT analysis was performed by the Rutgers University Molecular Imaging Center (RUMIC). Briefly, skeletons were harvested at trial endpoint and stored in 70% ethanol and transferred for imaging analysis. Hindlimbs were soaked in isotonic saline solution overnight to rehydrate before imaging. […] The rotation step was 0.4° through 180° total rotation, and three images were averaged at each rotation step. Each distal femur was scanned separately, and images were saved. Scan images were reconstructed using Skyscan nRecon software.

B10-mdx mice [2] = assay: Circulating lymphocytes and neutrophils (CBC) after 2 weeks (Study 1); type: in vivo, mouse
Method: It is understood that part of the efficacy of corticosteroids is via their impact on leukocyte trafficking, resulting in a decrease in lymphocyte and an increase in neutrophil counts in the blood within hours of drug administration. Corticostetoids regulate leukocyte trafficking via changes in adhesion molecules and cytokines, which likely reflects inhibition of NF-κB [39, 40]. The effect of the three corticosteroids on leukocyte trafficking was assessed in B10-mdx mice after 2 weeks of dosing (Study 1). No significant differences in neutrophil-to-lymphocyte ratio were seen between wildtype and B10-mdx mice (Fig. 6a).
Study 1: The goal of this study was to define the dose-response of each of the three corticosteroids. […] On Day 11, mice were fasted for 6 h and then blood was obtained to measure blood glucose. Blood glucose was measured using a glucometer (ACCU-CHECK) by tail bleeding. At the end of 14 days, mice were euthanized, and blood samples were evaluated for complete blood count (CBC) and plasma were collected for analysis of corticosterone levels, osteocalcin, creatine kinase, and cytokines. Brain, muscle, and liver were collected for RNAseq. The number of animals per group was as follows: WT, n = 15; B10-mdx, n = 11; corticosteroid-treated groups, n = 10–12.

IFN-γ = assay: LPS-induced IFN-γ in cultured BMDM; type: cell-based; settings: Mus musculus, corticosteroid overnight, LPS 10 ng/ml 3 h
Text: (§1) The immunosuppressive activity of corticosteroids is in part due to their inhibition of NF-κB-induced cytokines including TNF-α, IL-6, and IL-12. Furthermore, expression of some inflammatory-mediated proteins such as STAT1 is mediated via GREs, and not the NF-κB pathway. We therefore expanded murine bone marrow-derived macrophages (BMDM) in vitro, and after 5 days of culture tested the relative efficacy of different corticosteroids to prevent LPS-induced cytokine secretion.
(§2) BMDM mouse bone marrow derived macrophage (mBMDM) cultures were generated from the femur and tibia from two 7–11-week-old C57BL/6 mice. Briefly, bone marrow cells were carefully flushed out, suspended in ice-cold PBS, and spun down. After the supernatant was removed, the pelleted cells were resuspended in 2 ml (ammonium-Chloride-Potassium) ACK lysis buffer (Thermo Fisher, Cat# A1049201) and incubated for 3–4 min, followed by 14 ml ice-cold PBS, and then spun down. The pelleted cells were resuspended in 43 ml complete media [Roswell Park Memorial Institute (RPMI 1640), Gibco, Cat# 11875-093; 10% heat-inactivated fetal bovine serum (HiFBS), HyClone, Cat# SH30406.02; 1% 2 mM L-glutamine; 1% penicillin-streptomycin, Sigma, Cat# P4333-100ML; 1% MEM NEAA, Gibco, Cat# 11140-050; 1% Na Pyruvate, Gibco, Cat# 11360-070; 55 μM 2-Mercaptoethanol, Gibco, Cat#21985-023]. A total of 25 ng/ml M-CSF was added to the culture. Cells were dispensed as 200 μl per well into a 96-well tissue culture plate and incubated at 37°C, 5% CO2 for 4 days. On Day 5, media were removed and 100 μl fresh complete media containing M-CSF were added. Corticosteroids were added and cells incubated at 37°C and 5% CO2 overnight. Untreated cells were incubated with media. On Day 6, 10 ng/ml of lipopolysaccharide (LPS) was added and incubated at 37°C and 5% CO2 for 3 h followed by removal of cell media for cytokine analysis. Cytokines were measured using a Meso Scale Discovery (MSD), V-PLEX kit (V-PLEX Cat# K-15048D, www.mesoscale.com).

IL-12 = assay: LPS-induced IL-12 in cultured BMDM; type: cell-based; settings: Mus musculus, corticosteroid overnight, LPS 10 ng/ml 3 h
Text: as §1, §2

STAT1 = assay: GRE-mediated STAT1 in cultured BMDM; type: cell-based, mouse; settings: for EC50: Mus musculus, BMDM, corticosteroid overnight, LPS 10 ng/ml 3 h; for STAT1/IFN-γ Ratio: ratio of EC50 values
Text: as §1, §2

[3] = system: mineralocorticoid receptor; design: method as in PMID 30745312; settings: cited from earlier work
IL-1β = assay: LPS-induced IL-1β in cultured BMDM; type: cell-based; settings: Mus musculus, corticosteroid overnight, LPS 10 ng/ml 3 h
Text: as §1, §2

B10-mdx mice [4] = assay: Diaphragm hydroxyproline assay (Study 2); type: in vivo, mouse; settings: 4 months
Method: To determine muscle damage in B10-mdx mice and to evaluate the effects of the three corticosteroids on muscle, we used the hydroxyproline assay to measure the collagen content in diaphragm muscle tissue, a measure of muscle damage and fibrosis. […] Levels were reduced in mice treated with any of the three corticosteroids (Fig. 6d).
Diaphragm muscles were dissected, weighed, and stored at −80°. Tissues were cut to avoid the tendon(s), and 10 ± 1 mg of tissue was homogenized through sonication. Water and hydrochloric acid (12 M) content were normalized prior to hydrolysis at 120° for 3 h in pressure-tight polypropylene vials. After boiling, the hydrolysates were centrifuged at 10 000 × g for 3 min, and 6-μl triplicates of the hydrolysate were added to clear 96-well plates for evaporation in a 60°C oven overnight. The following day, a hydroxyproline kit (Sigma, cat #MAK008) was used to determine the hydroxyproline content. In each sample and standard well, 100 μl Chloramine T/Oxidation buffer mixture was added, incubated for 5 min at room temperature, and followed with 100 μl of perchloric acid diluted DMAB concentrate. The plate was sealed and incubated in a 60°C oven for 90 min. The 96-well plates were read using a BioTek Epoch 2 Spectrophotometer at an absorbance of 560 nm.

Row | bone density measured by microCT (B10-mdx mice [1]) | EC50 (IFN-γ) | EC50 (IL-12) | EC50 (STAT1) | EC50 (IL-1β) | Structure (SMILES) | % decrease in fraction of lymphocytes at Day 14 from mdx vehicle (B10-mdx mice [2]; 5 mg/kg PO daily) | % increase in fraction of PMNs at Day 14 (B10-mdx mice [2]; 5 mg/kg PO daily) | % decrease in fraction of lymphocytes at Day 14 from mdx vehicle (B10-mdx mice [2]; 15 mg/kg PO daily) | % increase in fraction of PMNs at Day 14 (B10-mdx mice [2]; 15 mg/kg PO daily) | STAT1/IFN-γ Ratio (STAT1) | effect on mineralocorticoid receptor signaling [3] | further results
1 | not reaching significance | 0.29 nM | 3.6 nM | 3.1 nM | 1.3 nM | CC(=O)OCC(=O)[C@@]12N=C(C)O[C@@H]1C[C@H]1[C@@H]3CCC4=CC(=O)C=C[C@]4(C)[C@H]3[C@@H](O)C[C@@]12C [Deflazacort] | 9%* | 41%* | 19%**** | 82%**** | 11× | no effect | % decrease in fraction of lymphocytes at Day 14 from mdx vehicle (B10-mdx mice [2]; 1.25 mg/kg PO daily): (1%); % increase in fraction of PMNs at Day 14 (B10-mdx mice [2]; 1.25 mg/kg PO daily): 3%; % decrease in fraction of lymphocytes at Day 14 from mdx vehicle (B10-mdx mice [2]; 2.5 mg/kg PO daily): 5%; % increase in fraction of PMNs at Day 14 (B10-mdx mice [2]; 2.5 mg/kg PO daily): 32%*; diaphragm hydroxyproline (fibrosis) (B10-mdx mice [4]; 5 and 15 mg/kg): reduced fibrosis
2 |  | 0.5 nM | 8.5 nM | 9.4 nM | 3 nM | C[C@]12C=CC(=O)C=C1CC[C@@H]1[C@@H]2[C@@H](O)C[C@@]2(C)[C@H]1CC[C@]2(O)C(=O)CO [Prednisolone] | 21%*** | 92%**** |  |  |  | agonist | bone density in the femur (micro-CT tissue mineral density) (B10-mdx mice [1]; 4 months, highest dose): significantly reduced bone density; % decrease in fraction of lymphocytes at Day 14 from mdx vehicle (B10-mdx mice [2]; 1.2 mg/kg PO daily): 17%**; % increase in fraction of PMNs at Day 14 (B10-mdx mice [2]; 1.2 mg/kg PO daily): 64%**; % decrease in fraction of lymphocytes at Day 14 from mdx vehicle (B10-mdx mice [2]; 2.4 mg/kg PO daily): 18%**; % increase in fraction of PMNs at Day 14 (B10-mdx mice [2]; 2.4 mg/kg PO daily): 81%***; diaphragm hydroxyproline (fibrosis) (B10-mdx mice [4]; 5 mg/kg): reduced fibrosis
3 | not reaching significance | 0.8 nM | 30 nM | 7.6 nM | 32 nM | C[C@@H]1C[C@H]2[C@@H]3CCC4=CC(=O)C=C[C@]4(C)C3=CC[C@]2(C)[C@@]1(O)C(=O)CO [Vamorolone] |  |  | (0.5%) | 7% | 10× | antagonist | % decrease in fraction of lymphocytes at Day 14 from mdx vehicle (B10-mdx mice [2]; 30 mg/kg PO daily): 5%; % increase in fraction of PMNs at Day 14 (B10-mdx mice [2]; 30 mg/kg PO daily): 27%; % decrease in fraction of lymphocytes at Day 14 from mdx vehicle (B10-mdx mice [2]; 45 mg/kg PO daily): 14%**; % increase in fraction of PMNs at Day 14 (B10-mdx mice [2]; 45 mg/kg PO daily): 70%**; diaphragm hydroxyproline (fibrosis) (B10-mdx mice [4]; 45 mg/kg): did not reach significance; diaphragm hydroxyproline (fibrosis) (B10-mdx mice [4]; 15 and 30 mg/kg): reduced fibrosis
